Tested on: CRAC current (ICRAC)
Test: Whole cell patch-clamp recordings of CRAC current in differentiated CD4+ T cells
Assay type: cell-based, mouse
Settings: for increase in current amplitude following 2-APB application: thapsigargin-pretreated, 2-APB 40 μM, step to −100 mV
Method: CD4^+ T cells were cultured in non-polarizing conditions and harvested at day 5. Patch-clamp recordings were performed using an Axopatch 200 amplifier (Axon Instruments) interfaced to an ITC-18 input/output board (Instrutech) and an iMac G5 computer. Currents were filtered at 1 kHz with a 4-pole Bessel filter and sampled at 5 kHz. Recording electrodes were pulled from 100-μl pipettes, coated with Sylgard, and fire-polished to a final resistance of 2-5 MΩ. Stimulation and data acquisition and analysis were performed using in-house routines developed on the Igor Pro platform (Wavemetrics). All data were corrected for the liquid junction potential of the pipette solution relative to Ringer's in the bath (10 mV) and for leak currents collected in 20 mM [Ca^2+]o+25 μM La^3+. The standard extracellular Ringer solution contained (in mM): 130 NaCl, 4.5 KCl, 20 CaCl2, 1 MgCl2, 10 D-glucose, and 5 Na-Hepes (pH 7.4). In some experiments, 2 mM CaCl2 was used in the standard extracellular solution and the NaCl concentration was raised to 150 mM. The standard divalent-free (DVF) Ringer solutions contained (in mM) 150 NaCl, 10 mM tetraacetic acid, 1 mM EDTA and 10 mM Hepes (pH 7.4). 25 nM charybdotoxin (Sigma) was added to all extracellular solutions to eliminate contamination from Kv1.3 channels. […] Averaged results are presented as the mean value±s.e.m. Curve fitting was done by least-squares methods using built-in functions in Igor Pro 5.0. The permeability of Cs^+ relative to that of Na^+ was calculated from the bionic reversal potential using the relation:

Structure (SMILES)	increase in current amplitude following 2-APB application (STIM2-deficient T cells, n=5) [%]	increase in current amplitude following 2-APB application (control T cells, n=4) [%]	block of Na+ CRAC currents (wild-type mouse T cells, 20 μM Ca2+) [%]
NCCOB(c1ccccc1)c1ccccc1 [2-APB, 2-Aminoethoxydiphenyl borate]	30±7	26±6	
[Ca+2] [Ca^2+]			~50
